Laboratory results published in ChEMBL document CHEMBL4373715, “Discovery and Biological Evaluations of Halogenated 2,4-Diphenyl Indeno[1,2-b]pyridinol Derivatives as Potent Topoisomerase IIα-Targeted Chemotherapeutic Agents for Breast Cancer” (J Med Chem, 2019).
pIC50: −log10 of the molar value.

Tests used:
HCT-15 = assay: Antiproliferative activity against human HCT15 cells measured after 72 hrs by EZ-Cytox assay; type: functional, cell-based; conditions: HCT-15, 72 h
T47D = assay: Antiproliferative activity against human T47D cells measured after 72 hrs by EZ-Cytox assay; type: functional, cell-based
DU-145 = assay: Antiproliferative activity against human DU145 cells measured after 72 hrs by EZ-Cytox assay; type: functional, cell-based; conditions: DU-145, 72 h
HeLa = assay: Antiproliferative activity against human HeLa cells measured after 72 hrs by EZ-Cytox assay; type: functional, cell-based
[1] = biological target: T1, DNA topoisomerase 1 (Homo sapiens) (UniProt P11387); assay: Inhibition of recombinant human topoisomerase 1-mediated relaxation of supercoiled pBR322 DNA at 100 uM measured after 30 mins by ethidium bromide staining based agarose gel electrophoresis relative to control
T1 sequence (whole entry): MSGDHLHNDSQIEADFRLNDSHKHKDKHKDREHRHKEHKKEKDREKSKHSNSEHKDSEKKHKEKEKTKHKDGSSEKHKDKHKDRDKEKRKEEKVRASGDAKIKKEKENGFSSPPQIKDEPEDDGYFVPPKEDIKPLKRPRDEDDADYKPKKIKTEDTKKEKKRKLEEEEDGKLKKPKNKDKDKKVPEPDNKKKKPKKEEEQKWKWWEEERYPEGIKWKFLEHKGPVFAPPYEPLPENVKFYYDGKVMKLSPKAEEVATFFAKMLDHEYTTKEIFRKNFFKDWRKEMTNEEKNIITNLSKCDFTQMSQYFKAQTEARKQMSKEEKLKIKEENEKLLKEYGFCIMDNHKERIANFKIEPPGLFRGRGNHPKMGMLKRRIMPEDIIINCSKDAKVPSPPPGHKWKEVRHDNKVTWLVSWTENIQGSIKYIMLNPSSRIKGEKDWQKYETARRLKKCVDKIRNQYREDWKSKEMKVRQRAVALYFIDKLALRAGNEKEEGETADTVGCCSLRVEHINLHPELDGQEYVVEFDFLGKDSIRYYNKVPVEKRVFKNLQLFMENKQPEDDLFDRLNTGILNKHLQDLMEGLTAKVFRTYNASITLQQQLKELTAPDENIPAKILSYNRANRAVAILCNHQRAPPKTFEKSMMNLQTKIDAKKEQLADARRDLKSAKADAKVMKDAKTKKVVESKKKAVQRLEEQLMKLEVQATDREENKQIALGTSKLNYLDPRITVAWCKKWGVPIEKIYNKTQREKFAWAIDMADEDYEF

[2] = biological target: DNA topoisomerase 2-alpha (Homo sapiens) (UniProt P11388); assay: Inhibition of recombinant human topoisomerase 2alpha-mediated relaxation of supercoiled pBR322 DNA at 100 uM measured after 30 mins by ethidium bromide staining based agarose gel electrophoresis relative to control
[3] = biological target: DNA topoisomerase 2-alpha (Homo sapiens) (UniProt P11388); assay: Inhibition of recombinant human topoisomerase 2alpha-mediated relaxation of supercoiled pBR322 DNA at 20 uM measured after 30 mins by ethidium bromide staining based agarose gel electrophoresis relative to control

Sequence of DNA topoisomerase 2-alpha (Homo sapiens) (P11388 whole entry): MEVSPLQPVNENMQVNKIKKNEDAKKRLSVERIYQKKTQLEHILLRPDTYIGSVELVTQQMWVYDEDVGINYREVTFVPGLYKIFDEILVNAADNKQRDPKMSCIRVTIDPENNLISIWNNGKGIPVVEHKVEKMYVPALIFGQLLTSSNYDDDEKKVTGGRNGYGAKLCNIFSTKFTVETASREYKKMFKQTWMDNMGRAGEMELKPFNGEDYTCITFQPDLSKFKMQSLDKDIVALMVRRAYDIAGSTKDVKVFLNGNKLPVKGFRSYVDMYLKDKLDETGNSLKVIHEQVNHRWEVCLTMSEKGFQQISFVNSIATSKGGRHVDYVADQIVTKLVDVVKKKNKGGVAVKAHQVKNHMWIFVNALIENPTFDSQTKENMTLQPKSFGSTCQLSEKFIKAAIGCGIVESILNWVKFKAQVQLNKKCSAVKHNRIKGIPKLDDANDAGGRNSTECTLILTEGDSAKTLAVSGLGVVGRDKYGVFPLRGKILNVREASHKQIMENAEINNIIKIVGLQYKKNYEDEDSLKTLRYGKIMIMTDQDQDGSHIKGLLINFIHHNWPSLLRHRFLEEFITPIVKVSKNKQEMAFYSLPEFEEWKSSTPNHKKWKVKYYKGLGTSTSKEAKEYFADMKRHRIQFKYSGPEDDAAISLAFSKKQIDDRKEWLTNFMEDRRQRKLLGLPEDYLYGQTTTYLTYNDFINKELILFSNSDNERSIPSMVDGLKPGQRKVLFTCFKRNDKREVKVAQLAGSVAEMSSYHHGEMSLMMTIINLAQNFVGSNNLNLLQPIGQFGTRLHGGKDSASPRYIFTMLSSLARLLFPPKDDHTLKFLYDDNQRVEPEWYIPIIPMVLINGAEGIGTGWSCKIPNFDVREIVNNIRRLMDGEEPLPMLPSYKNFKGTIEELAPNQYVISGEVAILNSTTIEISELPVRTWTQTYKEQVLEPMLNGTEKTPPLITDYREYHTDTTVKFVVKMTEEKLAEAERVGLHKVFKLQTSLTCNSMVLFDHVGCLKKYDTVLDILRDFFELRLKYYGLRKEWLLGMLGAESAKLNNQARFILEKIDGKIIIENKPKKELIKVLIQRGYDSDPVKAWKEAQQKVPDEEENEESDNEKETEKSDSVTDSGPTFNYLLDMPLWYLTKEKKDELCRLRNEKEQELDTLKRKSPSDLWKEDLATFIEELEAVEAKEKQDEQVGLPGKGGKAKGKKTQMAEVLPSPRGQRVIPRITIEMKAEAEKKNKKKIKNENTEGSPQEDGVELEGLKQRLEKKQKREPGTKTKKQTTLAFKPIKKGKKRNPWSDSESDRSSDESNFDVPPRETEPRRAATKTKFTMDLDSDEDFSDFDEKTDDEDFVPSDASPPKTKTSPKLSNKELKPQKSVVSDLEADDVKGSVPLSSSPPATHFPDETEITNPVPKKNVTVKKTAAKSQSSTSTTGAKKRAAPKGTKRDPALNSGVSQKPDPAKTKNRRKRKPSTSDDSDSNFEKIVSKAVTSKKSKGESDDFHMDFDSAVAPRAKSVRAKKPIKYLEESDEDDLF

Compound | pIC50 (HCT-15) | pIC50 (T47D) | pIC50 (DU-145) | pIC50 (HeLa) | inhibition [1] | inhibition [2] | inhibition [3]
Oc1ccc(-c2cc(-c3ccc(C(F)(F)F)cc3)nc3c2Cc2cccc(O)c2-3)cc1 | < 4.30 | < 4.30 | 4.88 | < 4.30 | 18.5% | 82.3% | 0%
Oc1ccc(-c2cc(-c3ccc(F)cc3)nc3c2Cc2cccc(O)c2-3)cc1 | < 4.30 | 4.61 | < 4.30 | < 4.30 | 1.2% | 75.3% | 1.4%
Oc1ccc2c(c1)Cc1c(-c3ccccc3O)cc(-c3ccccc3Cl)nc1-2 | 5.63 | 5.54 | 5.82 | 6.08 | 11.7% | 70.5% | 8.2%
Oc1ccccc1-c1cc(-c2ccc(F)cc2)nc2c1Cc1c(O)cccc1-2 | 5.37 | 6.21 | 5.63 | 4.50 | 0% | 67% | 0%
Oc1cccc(-c2cc(-c3cccc(Cl)c3)nc3c2Cc2ccc(O)cc2-3)c1 | 6.08 | 5.86 | 5.48 | 5.26 | 1.5% | 90.5% | 14.3%
Oc1cccc(-c2cc(-c3cccc(C(F)(F)F)c3)nc3c2Cc2c(O)cccc2-3)c1 | 5.57 | 5.72 | 5.79 | 5.38 | 5.6% | 67.3% | 40.5%
Oc1ccc(-c2cc(-c3cccc(Cl)c3)c3c(n2)-c2cc(O)ccc2C3)cc1 | 5.12 | 5.56 | 5.68 | 5.09 | 8.8% | 73.6% | 1.2%
Oc1ccccc1-c1cc(-c2ccc(Cl)cc2)nc2c1Cc1cccc(O)c1-2 | 5.91 | 5.62 | 6.26 | 5.27 | 0% | 83.9% | 25.3%
Oc1ccc2c(c1)-c1nc(-c3ccc(Cl)cc3)cc(-c3ccccc3O)c1C2 | 5.75 | 6.14 | 6.31 | 5.34 | 8% | 86.6% | 25.7%
Oc1ccc2c(c1)Cc1c(-c3cccc(Cl)c3)cc(-c3ccccc3O)nc1-2 | < 4.30 | < 4.30 | < 4.30 | < 4.30 | 1.6% | 74.3% | 3.4%
Oc1ccc(-c2cc(-c3ccc(F)cc3)nc3c2Cc2c(O)cccc2-3)cc1 | 5.65 | 5.86 | 5.74 | 5.31 | 14.7% | 50.8% | 3.6%
Oc1cccc(-c2cc(-c3cccc(Cl)c3)nc3c2Cc2c(O)cccc2-3)c1 | 5.95 | 5.82 | 5.83 | 5.48 | 0.5% | 100% | 24.1%
Oc1cccc(-c2cc(-c3ccccc3F)nc3c2Cc2cc(O)ccc2-3)c1 | 5.45 | 5.65 | 5.79 | 5.40 | 9.1% | 44.6% | 4.9%
Oc1cccc(-c2cc(-c3ccccc3C(F)(F)F)nc3c2Cc2cccc(O)c2-3)c1 | 5.68 | 5.76 | 5.94 | 5.33 | 15.9% | 65.2% | 3.3%
Oc1ccc(-c2cc(-c3ccccc3Cl)c3c(n2)-c2cc(O)ccc2C3)cc1 | 5.54 | 5.79 | 5.33 | 5.19 | 4% | 74.8% | 2%
Oc1ccc(-c2cc(-c3cccc(Cl)c3)c3c(n2)-c2ccc(O)cc2C3)cc1 | 5.24 | 5.73 | 5.65 | 5.23 | 8.8% | 73.9% | 3.3%
Oc1ccc(-c2cc(-c3ccccc3C(F)(F)F)nc3c2Cc2ccc(O)cc2-3)cc1 | 5.88 | 5.83 | 5.56 | 5.82 | 6.7% | 81% | 1.2%
Oc1ccc(-c2cc(-c3ccccc3)c3c(n2)-c2ccc(O)cc2C3)cc1 | 5.90 | 6.14 | 6.15 | 5.57 | 8.8% | 42.8% | 8.3%
Oc1cccc(-c2cc(-c3ccc(C(F)(F)F)cc3)nc3c2Cc2ccc(O)cc2-3)c1 | 5.53 | 5.74 | 5.50 | 5.44 | 0% | 100% | 5.1%
Oc1ccc2c(c1)-c1nc(-c3ccccc3O)cc(-c3ccc(Cl)cc3)c1C2 | < 4.30 | < 4.30 | < 4.30 | < 4.30 | 2.9% | 21.4% | 0%
Oc1cccc(-c2cc(-c3ccc(Cl)cc3)nc3c2Cc2c(O)cccc2-3)c1 | 5.74 | 5.71 | 5.69 | 5.36 | 18.6% | 76.8% | 42%
Oc1ccc(-c2cc(-c3cccc(Cl)c3)c3c(n2)-c2cccc(O)c2C3)cc1 | 5.62 | 5.72 | 5.79 | 5.78 | 6.1% | 75.3% | 2.2%
Oc1ccccc1-c1cc(-c2ccc(Cl)cc2)c2c(n1)-c1cccc(O)c1C2 | < 4.30 | < 4.30 | 4.89 | < 4.30 | 8.4% | 71.6% | 1.5%
Oc1ccccc1-c1cc(-c2ccc(Cl)cc2)c2c(n1)-c1c(O)cccc1C2 | 4.73 | 4.88 | 5.71 | < 4.30 | 0% | 70.5% | 6.4%
Oc1cccc(-c2cc(-c3cccc(Cl)c3)c3c(n2)-c2cccc(O)c2C3)c1 | 5.32 | 4.48 | 4.67 | 4.45 | 7.4% | 64.6% | 2.3%
Oc1cccc(-c2cc(-c3ccccc3)c3c(n2)-c2ccc(O)cc2C3)c1 | 5.89 | 5.39 | 6.57 | 5.24 | 10.2% | 36% | 3.3%
Oc1ccc(-c2cc(-c3ccccc3Cl)nc3c2Cc2cccc(O)c2-3)cc1 | 5.53 | 6.21 | 6.72 | 5.55 | 0% | 30.3% | 3.6%
Oc1ccc2c(c1)Cc1c(-c3ccccc3O)cc(-c3cccc(Cl)c3)nc1-2 | 5.56 | 5.56 | 6.44 | 5.57 | 14.6% | 80.8% | 2.6%
